Assay results published in patent publication US10889611B2, “Sialyltransferase inhibitors and uses thereof” (Academia Sinica, priority 2015, dated 2021).

Columns and labels:
[1] = system: PANC-1 pancreatic tumor; experiment: Inhibition of pancreatic tumor growth in SCID mice; assay type: in vivo
Procedure: SCID mice (6 weeks old) were orthotopically injected with 1×10^5 human pancreatic cells PANC-1 grown in glucose-containing or fructose-containing medium with or without the presence of the present compound (e.g., FCW34, 5 μM) on day 0. The progression of the tumor was followed by bioluminescence IVIS image analysis, and the test animals were then sacrificed by cervical dislocation after 14 weeks, and respective tumors and the liver sections were collected, and analyzed by histochemical staining with SNA lectin to measure 2,6-sialylation levels utilizing FACS analysis.

[2] = biological target: T1, α2,6(N)-sialyltransferases ST6GALI (Homo sapiens, UniProt P15907); experiment: Sialyltransferase inhibition assay, ST6GALI (reverse-phase HPLC); assay type: biochemical
T1 construct: purchased RnDSystems.com (R&D Systems)
T1 sequence (P15907 1-406): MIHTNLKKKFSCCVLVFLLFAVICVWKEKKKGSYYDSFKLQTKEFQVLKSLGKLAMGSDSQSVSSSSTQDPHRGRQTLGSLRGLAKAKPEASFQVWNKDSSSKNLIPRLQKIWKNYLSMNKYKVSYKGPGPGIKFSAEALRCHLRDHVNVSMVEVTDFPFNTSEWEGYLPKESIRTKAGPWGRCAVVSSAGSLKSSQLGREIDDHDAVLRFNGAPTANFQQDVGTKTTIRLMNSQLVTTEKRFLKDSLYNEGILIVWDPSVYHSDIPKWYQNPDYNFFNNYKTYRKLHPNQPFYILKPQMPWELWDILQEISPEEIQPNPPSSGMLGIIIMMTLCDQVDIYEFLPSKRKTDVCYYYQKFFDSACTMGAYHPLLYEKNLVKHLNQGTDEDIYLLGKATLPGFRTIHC
Method in brief: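 Human ST6GalI (1.4 mU) incubated 15 min at 37° C with 25 μM Galβ1-4GlcNAc, 1 mM CMP-Neu5Ac and inhibitor in 200 mM MES, 100 mM NaCl, 0.5 mM EDTA, 0.01% Triton X-100. Sialylated product quantified by reverse-phase HPLC; kinetics from nonlinear fitting of initial rates.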

[3] = system: PANC-1 cells; experiment: SNA lectin staining of 2,6-sialylation by FACS in PANC-1 cells; assay type: cell-based, human; conditions: PANC-1 cells grown in fructose-containing medium, FIG. 3
Description: PANC-1 cells were first grown in glucose-containing or fructose-containing medium treated with or without the presence of the test compound (i.e., FCW34 or AL10, which was used as a positive control), then the cells were stained with SNA lectin to measure 2,6-sialylation level by FACS analysis.

[4] = system: MDA-MB-231 cells; experiment: Transwell migration assay, breast cancer cells; assay type: cell-based, human
Description: Migration assays were done using a transwell, in which a polycarbonate filter pre-coated with Matrigel (8-μm pores, Millicell; Millipore, Billerica, Mass.) was inserted therein. […] Cells that had migrated to the underside of the inserted filter were stained with hematoxylin solution. The cells in the upper side of the inserted membrane were rubbed with a cotton swab. The migrated cells on the underside were pictured in a 200× magnification field and quantified.

## C[C@H](CCC(=O)OCCOCCOCCN=[N+]=[N-])C1CC[C@H]2[C@@H]3CC[C@@H]4C[C@H](OC(=O)[C@H](CC(=O)O)Nc5ccc([N+](=O)[O-])c6nonc56)CC[C@]4(C)[C@H]3CC[C@]12C (stereo partly drawn) [Compound 3, (3S)-4-(((3R,5R,8R,9S,10S,13R,14S)-17-((R)-5-(2-(2-(2-azidoethoxy)ethoxy)ethoxy)-5-oxopentan-2-yl)-10,13-dimethylhexadecahydro-1H-cyclopenta[a]phenanthren-3-yl)oxy)-3-((7-nitrobenzo[c][1,2,5]oxadiazol-4-yl)amino)-4-oxobutanoic acid]
[1]; PANC-1 cells grown in fructose-containing medium
  metastatic lesions in livers (histological analysis): suppressed
[1]; PANC-1 cells pre-treated with FCW34, FIG. 5
  progression of the tumor: halted significantly
[1]; mice bearing pancreatic cancer
  Liver lesions Incidence: 0/3
[2]
  selectivity ratio ST3GALI/ST6GALI: >139
[2]; α2,6-N-link, read-out: IC50 (μM) ST6GALI
  IC50: 3.59 ± 0.38 µM
[3]
  level of 2,6-sialylation: greatly reduced
[4]; 20 μM, FIG. 1
  migration of MDA-MD-231 cells: inhibited the migration
[4]; Homo sapiens, MDA-MB-231, 16 h, read-out: IC50 on migration
  IC50: 10.64 ± 0.09 µM
